What all share (type): cell-based
Test [1] relates to Ba/F3-EGFR ins. SVD cells. The experiment in a line: Cell proliferation suppression test (CellTiter-Glo, GI50), Ba/F3-EGFR ins. SVD. As to conditions: Mus musculus, 72 h, 3 days, N=4. In short, it runs like this: (§1)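 Ba/F3 lines in RPMI 1640/10% FBS without puromycin; IL-3 5 ng/mL added for Mock, EGF 100 ng/mL for EGFR WT. Cells treated 3 days at 37 °C, 5% CO2; ATP measured by CellTiter-Glo 2.0 on day 0 and day 3 (N=4). GI50 is the concentration inhibiting 50% of day 0–3 proliferation.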

For test [2], the system named is Ba/F3-EGFR ins. ASV cells. Put plainly: Cell proliferation suppression test (CellTiter-Glo, GI50), Ba/F3-EGFR ins. ASV. To be noted: Mus musculus, 72 h, 3 days, N=4. Summed up:
as §1

In another test the test system is Ba/F3-EGFR WT cells. Put plainly: Cell proliferation suppression test (CellTiter-Glo, GI50), Ba/F3-EGFR WT. To be noted: Mus musculus, 72 h, 100 ng/mL EGF, 3 days, N=4. Summed up:
as §1

In a further test the test system is Ba/F3-Mock cells. Put plainly: Cell proliferation suppression test (CellTiter-Glo, GI50), Ba/F3-Mock. To be noted: Mus musculus, BaF3, 72 h, 5 ng/mL IL-3, 3 days, N=4. Summed up:
as §1

The values below come from patent US20230025510A1, “BIARYL ETHER-TYPE QUINAZOLINE DERIVATIVES” (DAIICHI SANKYO COMPANY, LIMITED, priority 2018, published 2023).

For `COc1cc2ncnc(Nc3ccc(Oc4nc(-c5nnc(C6CC6)o5)cs4)cc3F)c2cc1NC(=O)/C=C/CN1CC[C@@H](OC)C1` [Example 63, (2E)-N-[4-(4-{[4-(5-Cyclopropyl-1,3,4-oxadiazol-2-yl)-1,3-thiazol-2-yl]oxy}-2-fluoroanilino)-7-methoxyquinazolin-6-yl]-4-[(3R)-3-methoxypyrrolidin-1-yl]but-2-enamide], the GI50 is 81.8 nM in test [1], 49.5 nM in test [2], 129 nM in the test on Ba/F3-EGFR WT cells and 1060 nM with Ba/F3-Mock cells.
